Results as given in ChEMBL document CHEMBL1201862, “PubChem BioAssay data set” (2004).
Active and inactive are the calls of the source.

Columns and labels:
[1] = target: Lytic switch protein BZLF1 (Epstein-Barr virus (strain B95-8) (HHV-4) (Human herpesvirus 4), UniProt P03206); experiment: inhibition of BZLF1 ZTA DNA binding – biochemical, fluorescence polarization, Epstein-Barr virus, 1536-well, counter-screen for EBNA-1 inhibitor project, dose response (AID 2377); design: species or system human gammaherpesvirus 4;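 note: fluorescence polarization of Cy5-labelled ZRE DNA probe bound by purified Zta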
[2] = target: Epstein-Barr nuclear antigen 1 (Epstein-Barr virus (strain B95-8) (HHV-4) (Human herpesvirus 4), UniProt P03211); experiment: inhibition of EBV nuclear antigen 1 DNA binding – biochemical, fluorescence polarization, 1536-well, dose response (AID 2381); design: species or system human gammaherpesvirus 4;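 note: fluorescence polarization of a Cy5 DNA probe bound by EBNA-1 protein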
[3] = target: T1, Estrogen receptor beta (Homo sapiens, UniProt Q92731); experiment: blockers of SRC-3 recruitment to ERβ – biochemical, ELISA, streptavidin-HRP readout, orthogonal assay, confirmation (AID 1060)
[4] = target: T2, Estrogen receptor (Homo sapiens, UniProt P03372);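 note: potency for inhibiting coactivator peptide recruitment to the receptor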
T2 sequence (P03372 whole entry): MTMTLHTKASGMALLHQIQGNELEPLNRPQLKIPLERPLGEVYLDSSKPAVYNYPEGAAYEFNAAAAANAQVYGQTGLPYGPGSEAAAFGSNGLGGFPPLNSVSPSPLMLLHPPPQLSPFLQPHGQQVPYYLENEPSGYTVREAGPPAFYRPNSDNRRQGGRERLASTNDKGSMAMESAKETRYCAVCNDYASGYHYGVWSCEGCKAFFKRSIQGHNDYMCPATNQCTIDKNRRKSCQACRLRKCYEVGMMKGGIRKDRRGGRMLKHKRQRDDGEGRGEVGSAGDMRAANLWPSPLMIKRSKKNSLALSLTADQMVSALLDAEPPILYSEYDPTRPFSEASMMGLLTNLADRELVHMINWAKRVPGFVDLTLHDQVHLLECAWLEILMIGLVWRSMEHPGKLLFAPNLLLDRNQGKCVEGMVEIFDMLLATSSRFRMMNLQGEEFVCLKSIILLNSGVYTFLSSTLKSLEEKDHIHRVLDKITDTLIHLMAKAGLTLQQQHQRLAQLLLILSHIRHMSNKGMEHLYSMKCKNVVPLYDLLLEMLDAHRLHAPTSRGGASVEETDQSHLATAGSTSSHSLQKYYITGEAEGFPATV

[5] = target: T1, Estrogen receptor beta
[6] = luciferase reporter signal reduction – luminescence, H4-C neuroglioblastoma cells, dose response (AID 2458); type: functional, cell-based;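 note: H4 neuroglioblastoma cells stably carrying a luciferase reporter gene fusion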
[7] = luciferase reporter signal suppression in cells – H4 neuroglioma cells, luminescence, dose response (AID 1990); type: functional, cell-based
[8] = cells; type: functional, cell-based
[9] = target: Photoreceptor-specific nuclear receptor (Homo sapiens, UniProt Q9Y5X4); type: functional, cell-based;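 note: CHO-S cells with Gal4-NCOR and VP16-NR2E3 two-hybrid luciferase reporter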
[10] = alpha-synuclein stem-loop translation blockers – luminescence, H4 neuroglioblastoma cells, dose confirmation, confirmation (AID 2454); type: functional, cell-based;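 note: H4 neuroglioblastoma cells carrying an alpha-synuclein 5'UTR luciferase reporter; potency for inhibition of the luciferase signal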
[11] = Luminescence Cell-Based Dose Response HTS to Identify Inhibitors of 5'UTR Stem-Loop Driven Prion Protein mRNA Translation in H4 Neuroglioblastoma Cells. [Related pubchem assays: 1827 (Project Summary), 1813 (Primary HTS)]; type: functional
[12] = alpha-synuclein stem-loop luciferase translation blockers – H4 neuroglioma cells, luminescence, confirmation (AID 1988); type: functional, cell-based
[13] = target: T3, Sphingosine 1-phosphate receptor 2 (Homo sapiens, UniProt O95136); experiment: Dose Response Cell-Based Assay for Agonists of the Sphingosine 1-Phosphate Receptor 2 (S1P2): Purchased Analogues. [Related pubchem assays: 1192, 373, 439 ]; type: functional
[14] = target: Sphingosine 1-phosphate receptor 1 (Homo sapiens, UniProt P21453); experiment: Dose Response Cell-Based Assay for Agonists of the Sphingosine 1-Phosphate Receptor 1 (S1P1): Purchased Analogues. [Related pubchem assays: 1192, 373, 439 ]; type: functional
[15] = target: Sphingosine 1-phosphate receptor 3 (Homo sapiens, UniProt Q99500); experiment: Dose Response Cell-Based Assay for Agonists of the Sphingosine 1-Phosphate Receptor 3 (S1P3): Purchased Analogues. [Related pubchem assays: 373, 439 ]; type: functional
[16] = target: T4, Insulin-degrading enzyme (Homo sapiens, UniProt P14735); experiment: Dose Response: Fluorescence polarization-based cell-based high throughput dose response assay for inhibitors of insulin-degrading enzyme (IDE). [Related pubchem assays: 434962 (Primary screen (IDE inhibitors in singlicate)), 449730 (Counterscreen (Cytotoxicity in triplicate)), 435028 (Confirmation (IDE inhibitors in triplicate)), 434984 (Summary …; type: functional
T4 sequence (P14735 whole entry): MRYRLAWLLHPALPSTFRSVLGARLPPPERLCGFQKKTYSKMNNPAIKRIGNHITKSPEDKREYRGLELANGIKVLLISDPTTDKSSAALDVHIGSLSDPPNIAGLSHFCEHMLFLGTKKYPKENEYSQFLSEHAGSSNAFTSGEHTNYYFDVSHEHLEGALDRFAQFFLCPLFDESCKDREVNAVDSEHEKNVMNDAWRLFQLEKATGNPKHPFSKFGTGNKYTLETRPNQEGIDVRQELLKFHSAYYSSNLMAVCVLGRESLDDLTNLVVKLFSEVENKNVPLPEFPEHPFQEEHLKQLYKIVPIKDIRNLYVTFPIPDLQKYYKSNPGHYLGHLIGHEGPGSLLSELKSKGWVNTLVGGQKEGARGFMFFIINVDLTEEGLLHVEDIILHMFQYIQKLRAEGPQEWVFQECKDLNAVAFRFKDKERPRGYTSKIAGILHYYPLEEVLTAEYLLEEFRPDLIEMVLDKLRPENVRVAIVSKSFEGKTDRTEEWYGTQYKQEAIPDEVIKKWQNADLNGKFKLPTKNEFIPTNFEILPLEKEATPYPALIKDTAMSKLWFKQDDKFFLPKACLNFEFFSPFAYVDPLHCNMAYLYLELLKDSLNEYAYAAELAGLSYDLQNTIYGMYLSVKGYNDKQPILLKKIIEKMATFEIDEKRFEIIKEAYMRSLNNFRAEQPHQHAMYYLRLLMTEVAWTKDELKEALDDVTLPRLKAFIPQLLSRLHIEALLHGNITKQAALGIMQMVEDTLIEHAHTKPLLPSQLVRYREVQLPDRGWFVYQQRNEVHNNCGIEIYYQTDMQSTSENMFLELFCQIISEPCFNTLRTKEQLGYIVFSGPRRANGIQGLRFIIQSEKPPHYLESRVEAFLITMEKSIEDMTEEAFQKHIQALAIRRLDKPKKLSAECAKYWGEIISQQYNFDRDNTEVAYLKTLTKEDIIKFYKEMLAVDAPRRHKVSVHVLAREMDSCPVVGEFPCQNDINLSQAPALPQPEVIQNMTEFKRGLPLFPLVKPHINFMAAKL

[17] = mitochondrial function rescue without frataxin homolog – Friedreich's ataxia, plus single-dose screen, dose response (AID 1465); type: functional;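 note: yeast depleted of Yfh1p frataxin homolog grown on glycerol needing respiration; WST-1 tetrazolium dye reduction as measure of cellular dehydrogenase metabolic activity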
[18] = Counterscreen for IDE inhibitors: Luminescence-based cell-based high throughput dose response assay to identify compounds that are cytotoxic to HEK cells. [Related pubchem assays: 434962 (Primary screen (IDE inhibitors in singlicate)), 449730 (Counterscreen (Cytotoxicity in triplicate)), 435028 (Confirmation (IDE inhibitors in triplicate)) …; type: functional; details: HEK293
[19] = target: T3, Sphingosine 1-phosphate receptor 2; experiment: Dose Response Cell Based Assay for Agonists of the S1P2 Receptor of Purchased Analogues. [Related pubchem assays: 729, 843, 854, 736 ]; type: functional

T1 sequence (Q92731 whole entry): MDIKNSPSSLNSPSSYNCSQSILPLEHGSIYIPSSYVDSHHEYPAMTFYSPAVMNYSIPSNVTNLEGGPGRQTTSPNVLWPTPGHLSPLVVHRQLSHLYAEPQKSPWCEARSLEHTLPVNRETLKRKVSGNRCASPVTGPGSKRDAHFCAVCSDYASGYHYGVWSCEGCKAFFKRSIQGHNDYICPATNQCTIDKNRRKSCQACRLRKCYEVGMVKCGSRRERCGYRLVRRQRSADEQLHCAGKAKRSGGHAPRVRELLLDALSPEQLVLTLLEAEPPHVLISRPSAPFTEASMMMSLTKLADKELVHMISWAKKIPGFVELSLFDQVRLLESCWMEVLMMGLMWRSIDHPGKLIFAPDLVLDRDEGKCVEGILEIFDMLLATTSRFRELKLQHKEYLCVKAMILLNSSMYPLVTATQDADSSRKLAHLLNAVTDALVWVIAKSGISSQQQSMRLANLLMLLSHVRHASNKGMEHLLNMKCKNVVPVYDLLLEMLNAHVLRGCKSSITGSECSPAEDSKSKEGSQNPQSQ
T3 sequence (O95136 whole entry): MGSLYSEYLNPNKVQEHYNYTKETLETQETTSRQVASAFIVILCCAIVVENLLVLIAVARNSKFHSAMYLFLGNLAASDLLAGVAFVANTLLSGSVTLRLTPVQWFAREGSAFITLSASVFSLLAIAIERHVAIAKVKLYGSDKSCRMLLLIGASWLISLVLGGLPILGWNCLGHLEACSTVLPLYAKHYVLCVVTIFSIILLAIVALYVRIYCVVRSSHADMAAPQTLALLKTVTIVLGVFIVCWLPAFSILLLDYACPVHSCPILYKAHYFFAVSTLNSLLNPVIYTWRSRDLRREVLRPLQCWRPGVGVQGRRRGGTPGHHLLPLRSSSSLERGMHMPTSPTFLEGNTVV
Chain of Sphingosine 1-phosphate receptor 3 (Q99500 whole entry): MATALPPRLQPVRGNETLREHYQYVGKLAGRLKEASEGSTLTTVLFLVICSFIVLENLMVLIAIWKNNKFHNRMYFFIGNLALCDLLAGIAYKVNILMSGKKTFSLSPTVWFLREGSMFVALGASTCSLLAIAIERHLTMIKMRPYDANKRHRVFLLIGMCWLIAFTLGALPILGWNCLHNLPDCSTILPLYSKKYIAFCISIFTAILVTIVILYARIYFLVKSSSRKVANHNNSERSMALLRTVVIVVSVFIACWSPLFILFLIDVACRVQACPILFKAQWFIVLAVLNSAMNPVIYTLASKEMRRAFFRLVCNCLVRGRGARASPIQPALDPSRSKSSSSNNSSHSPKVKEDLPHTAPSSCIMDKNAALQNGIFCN
Chain of Lytic switch protein BZLF1 (P03206 whole entry): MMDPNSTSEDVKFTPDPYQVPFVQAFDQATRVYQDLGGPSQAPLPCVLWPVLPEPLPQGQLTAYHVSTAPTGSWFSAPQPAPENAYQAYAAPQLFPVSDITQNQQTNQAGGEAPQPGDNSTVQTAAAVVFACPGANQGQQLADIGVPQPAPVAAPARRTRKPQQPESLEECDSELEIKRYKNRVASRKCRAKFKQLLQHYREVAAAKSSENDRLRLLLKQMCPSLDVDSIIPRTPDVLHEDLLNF
Chain of Sphingosine 1-phosphate receptor 1 (P21453 whole entry): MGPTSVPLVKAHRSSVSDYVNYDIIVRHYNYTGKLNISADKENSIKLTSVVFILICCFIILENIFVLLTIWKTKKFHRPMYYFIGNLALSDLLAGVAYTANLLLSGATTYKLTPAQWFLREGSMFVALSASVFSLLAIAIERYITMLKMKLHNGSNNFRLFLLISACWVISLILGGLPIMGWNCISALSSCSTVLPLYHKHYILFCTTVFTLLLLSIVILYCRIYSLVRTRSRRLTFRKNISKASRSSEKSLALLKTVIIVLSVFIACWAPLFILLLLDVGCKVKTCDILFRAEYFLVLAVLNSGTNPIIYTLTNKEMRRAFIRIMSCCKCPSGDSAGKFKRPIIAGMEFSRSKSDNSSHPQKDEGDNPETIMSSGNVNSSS
Chain of Photoreceptor-specific nuclear receptor (Q9Y5X4 whole entry, the tested form may be a part): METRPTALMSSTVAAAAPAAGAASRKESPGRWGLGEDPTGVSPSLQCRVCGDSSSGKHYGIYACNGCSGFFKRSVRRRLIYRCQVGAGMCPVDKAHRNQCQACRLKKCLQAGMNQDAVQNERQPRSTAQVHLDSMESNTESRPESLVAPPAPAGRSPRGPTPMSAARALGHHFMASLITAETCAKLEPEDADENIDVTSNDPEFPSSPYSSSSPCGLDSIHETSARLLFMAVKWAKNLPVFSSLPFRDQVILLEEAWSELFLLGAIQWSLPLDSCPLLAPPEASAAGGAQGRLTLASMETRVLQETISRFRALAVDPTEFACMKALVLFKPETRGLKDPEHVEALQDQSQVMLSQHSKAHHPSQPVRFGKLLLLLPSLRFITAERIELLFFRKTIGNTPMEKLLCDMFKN
Chain of Epstein-Barr nuclear antigen 1 (P03211 whole entry): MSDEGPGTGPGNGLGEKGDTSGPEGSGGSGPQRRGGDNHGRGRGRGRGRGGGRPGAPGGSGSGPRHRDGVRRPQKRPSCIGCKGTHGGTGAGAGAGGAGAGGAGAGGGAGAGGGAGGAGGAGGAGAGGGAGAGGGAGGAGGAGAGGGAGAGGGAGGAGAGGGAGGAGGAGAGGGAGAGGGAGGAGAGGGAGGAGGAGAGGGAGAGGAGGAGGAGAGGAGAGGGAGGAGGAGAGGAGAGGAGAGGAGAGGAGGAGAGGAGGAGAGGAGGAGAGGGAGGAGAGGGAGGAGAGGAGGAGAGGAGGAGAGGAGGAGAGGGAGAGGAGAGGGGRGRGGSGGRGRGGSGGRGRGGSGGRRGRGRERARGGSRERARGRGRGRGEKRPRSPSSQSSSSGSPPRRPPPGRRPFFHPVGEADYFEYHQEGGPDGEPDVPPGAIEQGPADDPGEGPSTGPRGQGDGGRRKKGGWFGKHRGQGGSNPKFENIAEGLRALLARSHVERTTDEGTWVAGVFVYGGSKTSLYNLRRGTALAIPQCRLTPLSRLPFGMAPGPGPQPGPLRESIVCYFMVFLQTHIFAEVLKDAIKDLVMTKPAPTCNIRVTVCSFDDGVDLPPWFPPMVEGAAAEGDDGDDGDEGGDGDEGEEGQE

Question: With `COc1ccc(CN=C(S)N2CCN(S(=O)(=O)c3cccc(F)c3)CC2)cc1` as the molecule, how does the IC50 [1] read?
Answer: > 111 µM (not active)

Question: What about the IC50 [2] of the same molecule?
Answer: 5.94 µM (active)

Question: What does the source list for `Cc1cc(C)c(S(=O)(=O)/N=C2\C=CC(=O)C(Cl)=C2)c(C)c1`?
Answer: IC50 [3]: 16.5 µM (not active); IC50 [4]: 10.3 µM (active); IC50 [5]: 4.69 µM (active)

Question: Which EC50 [6] does the source give for `Cc1ccsc1C(=O)OCC(=O)c1cc(C)n(CC2CCCO2)c1C` (centres undefined) here?
Answer: 0.9 µM (active)

Question: And the EC50 [7]?
Answer: 8.04 µM (active)

Question: And the EC50 [8]?
Answer: 3.3 µM (active)

Question: And the IC50 [9]?
Answer: 6.9 µM (active)

Question: What about the EC50 [10] of the same molecule?
Answer: 0.322 µM (active)

Question: And the EC50 [11]?
Answer: 0.325 µM (active)

Question: What about the EC50 [12] of the same molecule?
Answer: < 0.1 µM (active)

Question: For `NC(=O)C1CCN(C(=O)c2cc(-c3ccccc3)on2)CC1`, which EC50 [13] is on record?
Answer: > 10 µM (not active)

Question: And the EC50 [14]?
Answer: > 50 µM (not active)

Question: What about the EC50 [15] of the same molecule?
Answer: > 50 µM (not active)

Question: Which IC50 [16] does the source give for `O=C1NC(=O)N(c2ccc3c(c2)OCO3)C(=O)/C1=C\c1ccc(N2CCCCC2)o1` here?
Answer: 21 µM (not active)

Question: And the EC50 [17]?
Answer: > 100 µM (active)

Question: And the IC50 [18]?
Answer: > 55.7 µM (not active)

Question: For `COc1ccc(C(N)=O)c(OCC(=O)c2cc(C)n(Cc3ccccc3)c2C)c1`, which EC50 [19] is on record?
Answer: > 30 µM (not active)
